Measurements taken from patent publication US20240269304A1, “BCL-XL INHIBITOR ANTIBODY-DRUG CONJUGATES AND METHODS OF USE THEREOF” (Novartis AG, priority 2020, published 2024).
pIC50: −log10 of the molar value. Like-named read-outs stand apart in the source and are kept apart here. Each block holds one molecule with its values, some of them ahead of it.

How the values were obtained:
NCI-H1650 = assay: CellTiter Glo 3D spheroid proliferation/survival, 5 days, NCI-H1650, 0.0005-500 nM (Example 10); type: cell-based, human; details: spheroids; for pIC50 / NCI-H1650 IC50 (nM): 0.0005-500 nM
Experimental: One target was assessed: EGFR.
The ability of the BCL-xL antibody drug conjugates to inhibit cell proliferation and survival was assessed using the Promega CellTiter-Glo® proliferation assay.
Cell lines were cultured in media that is optimal for their growth at 5% CO2, 37° C. in a tissue culture incubator. Prior to seeding for the proliferation assay, the cells were split at least 2 days before the assay to ensure optimal growth density. […] Cell viability and cell density were determined using a cell counter (Vi-Cell XR Cell Viability Analyzer, Beckman Coulter).
Cells were seeded at a density of 3,000 cells per well in 45 uL of standard growth media. Plates were spun in a centrifuge for 5 minutes and 1,000 RPM. Plates were incubated at 5% CO2, 37° C. for 72 hours in a tissue culture incubator. On the day of dosing, EGFR targeting BCL-xL ADCs were prepared at 1OX in standard growth media. The prepared drug treatments were then added to the cells resulting in final concentrations of 0.0005-500 nM and a final volume of 50 μL per well. Each drug concentration was tested in quadruplets. Plates were incubated at 5% CO2, 37° C. for 5 days in a tissue culture incubator.
Cell viability was assessed through the addition of 40 μL of CellTiter Glo 3D Cell Viability Assay substrate (Promega, cat #G9681), a reagent which lyses cells and measures total adenosine triphosphate (ATP) content. Wells were mixed thoroughly and plates were incubated at room temperature for 30 minutes to stabilize luminescent signals prior to reading using a luminescence reader (EnVision Multilabel Plate Reader, PerkinElmer).
To evaluate the effect of the drug treatments, luminescent counts from wells containing untreated cells (100% viability) were used to normalize treated samples. […] IC50 and Amax values were extrapolated from the resultant curves.

HCC1569 cells = assay: CellTiterGlo (CTG) cell viability, 120 h, HCC1569, single agent or with 10 nM Paclitaxel; type: cell-based; details: Homo sapiens
Experimental: HCC1569 cells were cultivated in RPMI supplemented with 10% heat inactivated fetal bovine serum, penicillin (100 IU/ml), streptomycin (100 μg/ml) and L-glutamine (2 mM). Cell lines were cultured at 37° C. in a humidified atmosphere containing 5% 002. […] Effects of ADCs on cell viability were assessed after 5 days of incubation at 37° C./5% CO2 by quantification of cellular ATP levels using CellTiterGlo at 75 μL reagent/well. All the conditions were tested in triplicates. Luminescence was quantified on a multipurpose plate reader. IC50s were calculated using standard four-parametric curve fitting.

H1650 cells = assay: CellTiterGlo (CTG) cell viability, 3D, 120 h, H1650 (Example 8); type: cell-based, human; details: Homo sapiens, NCI-H1650, H1650 3D
[1] = HCC1569, read-out: HCC1569 CTG 120 h IC50 nM + Paclitaxel 10 nM Mean N1 and N2, in the presence of 10 nM Paclitaxel, mean
[2] = HCC1569, read-out: HCC1569 CTG 120 h IC50 nM + Paclitaxel 10 nM N1, in the presence of 10 nM Paclitaxel, N1
[3] = HCC1569, read-out: HCC1569 CTG 120 h IC50 nM + Paclitaxel 10 nM N2, in the presence of 10 nM Paclitaxel, N2
[4] = HCC1569, read-out: HCC1569 CTG 120 h IC50 nM Mean N1 and N2, single agent, mean
[5] = HCC1569, read-out: HCC1569 CTG 120 h IC50 nM N1, single agent, N1
[6] = HCC1569, read-out: HCC1569 CTG 120 h IC50 nM N2, single agent, N2
[7] = experiment n1, read-out: H1650 3D CTG IC50 n1
[8] = experiment n2, read-out: H1650 3D CTG IC50 n2
[9] = mean of n1 and n2, read-out: H1650 3D CTG IC50 Mean of n1 and n2

Compound: Cc1c(Nc2nc3ccccc3s2)nnc2c1CCCN2c1nc(C(=O)O)c(CCCOc2ccc(C#CC[N+](C)(C)Cc3ccc(NC(=O)[C@H](CCCNC(N)=O)NC(=O)[C@@H](NC(=O)CCOCCN4C(=O)CC(C)C4=O)C(C)C)cc3CN(C)C(=O)OCc3cn(CCOCCOCCOCCOCCOCCOCCOCCOCCC(=O)O)nn3)cc2F)s1 (mixture of isomers) [EGFR1-L3A-P1]
NCI-H1650 Amax (Span) (NCI-H1650): >100
pIC50 (NCI-H1650): > 9.16

Compound: Cc1c(Nc2nc3ccccc3s2)nnc2c1CCCN2c1nc(C(=O)O)c(CCCOc2ccc(C#CCN(C)C(=O)COc3ccc(NC(=O)[C@H](CCCNC(N)=O)NC(=O)[C@@H](NC(=O)CCOCCN4C(=O)CC(C)C4=O)C(C)C)cc3CN(C)C(=O)OCc3cn(CCOCCOCCOCCOCCOCCOCCOCCOCCC(=O)O)nn3)cc2F)s1 (mixture of isomers) [EGFR1-L3C-P3]
NCI-H1650 Amax (Span) (NCI-H1650): 100.6

Compound: Cc1cc(N(CCCC(O)C[N+](C)(C)C)c2nc(C(=O)O)c(CCCOc3ccc(C#CCN(C)C(=O)OCc4ccc(NC(=O)[C@H](CCCNC(N)=O)NC(=O)[C@@H](NC(=O)CCOCCN5C(=O)CC(C)C5=O)C(C)C)cc4CN(C)C(=O)OCc4cn(CCOCCOCCOCCOCCOCCOCCOCCOCCC(=O)O)nn4)cc3F)s2)nnc1Nc1nc2ccccc2s1 (mixture of isomers) [EGFR1-L3C-P5]
pIC50 (NCI-H1650): < 6.30

Compound: COCCOCCOCCOCCOCCOCCOCCOCCn1cc(COC(=O)N(C)Cc2cc(NC(=O)[C@H](CCCNC(N)=O)NC(=O)[C@@H](NC(=O)CCOCCN3C(=O)CC(C)C3=O)C(C)C)ccc2C[N+](C)(C)CC#Cc2ccc(OCCCc3sc(N4CCCc5c4nnc(Nc4nc6ccccc6s4)c5C)nc3C(=O)O)c(F)c2)nn1 (mixture of isomers) [EGFR1-L4A-P1]
pIC50 (NCI-H1650): > 9.16

Compound: Cc1c(Nc2nc3ccccc3s2)nnc2c1CCCN2c1nc(C(=O)O)c(CCCOc2ccc(C#CC[N+](C)(C)Cc3ccc(NC(=O)[C@H](CCCNC(N)=O)NC(=O)[C@@H](NC(=O)CCOCCN4C(=O)CC(C)C4=O)C(C)C)cc3COCc3cn(CCOCCOCCOCCOCCOCCOCCOCCOCCC(=O)O)nn3)cc2F)s1 (mixture of isomers) [EGFR1-L7A-P1]
pIC50 (NCI-H1650): > 9.16

Compound: Cc1c(Nc2nc3ccccc3s2)nnc2c1CCCN2c1nc(C(=O)O)c(CCCOc2ccc(C#CCN(C)C(=O)OCc3ccc(NC(=O)[C@H](CCCNC(N)=O)NC(=O)[C@@H](NC(=O)CCOCCN4C(=O)CC(C)C4=O)C(C)C)cc3COCc3cn(CCOCCOCCOCCOCCOCCOCCOCCOCCC(=O)O)nn3)cc2F)s1 (mixture of isomers) [EGFR1-L7C-P3]
pIC50 (NCI-H1650): > 8.21

Compound: Cc1cc(N(CCCN(C)C)c2nc(C(=O)O)c(CCCOc3ccc(C#CCN(C)C(=O)OCc4ccc(NC(=O)[C@H](CCCNC(N)=O)NC(=O)[C@@H](NC(=O)CCOCCN5C(=O)CC(C)C5=O)C(C)C)cc4COCc4cn(CCOCCOCCOCCOCCOCCOCCOCCOCCC(=O)O)nn4)cc3F)s2)nnc1Nc1nc2ccccc2s1 (mixture of isomers) [EGFR1-L7C-P6]
pIC50 (NCI-H1650): < 6.30

Compound: Cc1cc(N(C)c2nc(C(=O)O)c(CCCOc3ccc(C#CCN(C)C(=O)OCc4ccc(NC(=O)[C@H](CCCNC(N)=O)NC(=O)[C@@H](NC(=O)CCOCCN5C(=O)CC(C)C5=O)C(C)C)cc4COCc4cn(CCOCCOCCOCCOCCOCCOCCOCCOCCC(=O)O)nn4)cc3F)s2)nnc1Nc1nc2ccccc2s1 (mixture of isomers) [EGFR1-L7C-P7]
pIC50 (NCI-H1650): > 7.26

Compound: COCOCCOCCOCCOCCOCCOCCOCCn1cc(COCc2cc(NC(=O)[C@@H](CCCNC(N)=O)NC(=O)[C@H](NC(=O)CCOCCN3C(=O)CC(C)C3=O)C(C)C)ccc2C[N+](C)(C)CC#Cc2ccc(OCCCc3sc(N4CCCc5c4nnc(Nc4nc6ccccc6s4)c5C)nc3C(=O)O)c(F)c2)nn1 (mixture of isomers) [EGFR1-L8A-P1]
pIC50 (NCI-H1650): > 8.69

Compound: Cc1cc(N(CCCC(O)C[N+](C)(C)CCS(=O)(=O)O)c2nc(C(=O)O)c(CCCOc3ccc(C#CCN(C)C(=O)OCc4ccc(NC(=O)[C@H](CCCNC(N)=O)NC(=O)[C@@H](NC(=O)CCOCCN5C(=O)CC(C)C5=O)C(C)C)cc4)cc3F)s2)nnc1Nc1nc2ccccc2s1 (mixture of isomers) [EGFR1-L9C-P4]
pIC50 (NCI-H1650): < 6.30

Compound: Cc1cc(N(CCCC(O)C[N+](C)(C)C)c2nc(C(=O)O)c(CCCOc3ccc(C#CCN(C)C(=O)OCc4ccc(NC(=O)[C@H](CCCNC(N)=O)NC(=O)[C@@H](NC(=O)CCOCCN5C(=O)CC(C)C5=O)C(C)C)cc4)cc3F)s2)nnc1Nc1nc2ccccc2s1 (mixture of isomers) [EGFR1-L9C-P5]
pIC50 (NCI-H1650): < 6.30

Compound: Cc1cc(N(C)c2nc(C(=O)O)c(CCCOc3ccc(C#CC[N+](C)(C)Cc4ccc(NC(=O)[C@H](CCCNC(N)=O)NC(=O)[C@@H](NC(=O)CCOCCN5C(=O)CC(C)C5=O)C(C)C)cc4CN(Cc4cn(CCOCCOCCOCCOCCOCCOCCOCCOCCC(=O)O)nn4)C(=O)OCc4cn(CCOCCOCCOCCOCCOCCOCCOCCOCCC(=O)O)nn4)cc3F)s2)nnc1Nc1nc2ccccc2s1 (mixture of isomers) [EGFR1-L10A-P2]
pIC50 (NCI-H1650): > 8.21

Compound: Cc1c(Cc2nc3ccccc3s2)nnc2c1CCCN2c1nc(C(=O)O)c(CCCOc2ccc(C#CCN(C)C(=O)OCc3ccc(NC(=O)[C@H](CCCNC(N)=O)NC(=O)[C@@H](NC(=O)CCOCCN4C(=O)CC(C)C4=O)C(C)C)cc3CN(Cc3cn(CCOCCOCCOCCOCCOCCOCCOCCOCCC(=O)O)nn3)C(=O)OCc3cn(CCOCCOCCOCCOCCOCCOCCOCCOCCC(=O)O)nn3)cc2F)s1 (mixture of isomers) [EGFR1-L10C-P3]
pIC50 (NCI-H1650): > 7.73

Compound: Cc1cc(N(CCCC(O)C[N+](C)(C)CCCS(=O)(=O)O)c2nc(C(=O)O)c(CCCOc3ccc(C#CCN(C)C(=O)OCc4ccccc4CN(C)C(=O)OCc4cn(CCOCCOCCOCCOCOCCOCCOCCOCCCC(=O)O)nn4)cc3F)s2)nnc1Nc1nc2ccccc2s1 (centres unmarked) [EGFR1-L3C-P4]
pIC50 (NCI-H1650): < 6.30

Compound: Cc1c(Nc2nc3ccccc3s2)nnc2c1CCCN2c1ccc(-c2cnn(CC34CC5(C)CC(C)(C3)CC(OCCN(CC[C@H](O)CO)C(=O)OCc3ccc(NC(=O)[C@H](CCCNC(N)=O)NC(=O)[C@@H](NC(=O)CCOCCN6C(=O)C=CC6=O)C(C)C)cc3CN(C)C(=O)CCOCCOCCOCCOCCOCCOCCOCCOCCOCCOCCOCCOCCOCCOCCOCCOCCOCCOCCOCCOCCOCCOCCOCCOCCOCCC(=O)O)(C5)C4)c2C)c(C(=O)O)n1 [L11C-P19]
NCI-H1650 IC50 (nM) (NCI-H1650): among the most potent

Compound: Cc1c(Nc2nc3ccccc3s2)nnc2c1CCCN2c1ccc(-c2cnn(CC34CC5(C)CC(C)(C3)CC(OCCN(CCCO)C(=O)OCc3ccc(NC(=O)[C@H](CCCNC(N)=O)NC(=O)[C@@H](NC(=O)CCOCCN6C(=O)C=CC6=O)C(C)C)cc3CN(C)C(=O)CCOCCOCCOCCOCCOCCOCCOCCOCCOCCOCCOCCOCCOCCOCCOCCOCCOCCOCCOCCOCCOCCOCCOCCOCCOCCC(=O)O)(C5)C4)c2C)c(C(=O)O)n1 [L11C-P25]
NCI-H1650 IC50 (nM) (NCI-H1650): among the most potent

IC50 (HCC1569 cells; [1]): 0.111 nM
IC50 (HCC1569 cells; [2]): 0.126 nM
IC50 (HCC1569 cells; [3]): 0.096 nM
IC50 (HCC1569 cells; [4]): 12.4 nM
IC50 (HCC1569 cells; [5]): 13.1 nM
IC50 (HCC1569 cells; [6]): 11.7 nM
pIC50 (H1650 cells; [7]): 8.97
pIC50 (H1650 cells; [8]): 8.72
pIC50 (H1650 cells; [9]): 8.83
Compound: Cc1cc(N(C)c2nc(C(=O)O)c(CCCOc3ccc(C#CCN(C)C)cc3F)s2)nnc1Nc1nc2ccccc2s1 [P2, 2-[[6-(1,3-benzothiazol-2-ylamino)-5-methyl-pyridazin-3-yl]-methyl-amino]-5-[3-[4-[3-(dimethylamino)prop-1-ynyl]-2-fluoro-phenoxy]propyl]thiazole-4-carboxylic acid]

IC50 (HCC1569 cells; [1]): 0.436 nM
IC50 (HCC1569 cells; [2]): 0.443 nM
IC50 (HCC1569 cells; [3]): 0.429 nM
IC50 (HCC1569 cells; [4]): 33 nM
IC50 (HCC1569 cells; [5]): 40.3 nM
IC50 (HCC1569 cells; [6]): 25.6 nM
pIC50 (H1650 cells; [7]): 8.12
pIC50 (H1650 cells; [8]): 8.33
pIC50 (H1650 cells; [9]): 8.21
Compound: CNCC#Cc1ccc(OCCCc2sc(N(C)c3cc(C)c(Nc4nc5ccccc5s4)nn3)nc2C(=O)O)c(F)c1 [P7, 2-[[6-(1,3-benzothiazol-2-ylamino)-5-methyl-pyridazin-3-yl]-methyl-amino]-5-[3-[2-fluoro-4-[3-(methylamino)prop-1-ynyl]phenoxy]propyl]thiazole-4-carboxylic acid]
